This is an account of results in US9617262B2, “Antibacterial cyclopental[C]pyrrole substituted 3,4-dihydro-1H-[1,8]naphthyridinones” (Janssen Sciences Ireland UC, priority 2011, dated 2017).

For data set [1], the system named is Staphylococcus aureus ATCC 29213. Nature of the data set: Antibacterial susceptibility testing: IC90 determination (STA). The data set is classed as cell-based. Conditions: STA ATCC 29213, 90% inhibitory concentration for bacterial growth. The gist of the method: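 Broth microdilution in Mueller-Hinton broth, two-fold compound dilutions (typically 63–0.49 μM), 5×10^5 CFU/ml inoculum, 1.25% DMSO final. Incubated 16–20 h at 35 °C; growth read fluorometrically after resazurin (ex 540/em 590 nm). IC90 in μg/ml = concentration giving 90% growth inhibition.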

Another data set concerns Human HelaM cells. Nature of the data set: Cytotoxicity MTT assay (TOX HELAM). The class given is cell-based. The following applies: 72 hours. The gist of the method:
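HelaM cells exposed to compound, typically 25 to 0.8 μM, 0.5% DMSO, for 72 hours at 37° C. Viability by MTT reduction, absorbance 540 nm minus 690 nm; CC50 is concentration giving 50% reduction in viability.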
In general terms: Tetrazolium dyes change colour on reduction, which living cells bring about.

Data set [2] is described as follows: In vivo pharmacokinetic and oral bioavailability. The following applies: male Swiss mice. The procedure:
The in vivo pharmacokinetics and oral bioavailability of the compound of the examples was/is investigated in male Swiss mice (fed) following single intravenous (i.v.) bolus and oral (p.o.) administration. For the i.v. and p.o. solution formulations, the compound was/is dissolved in a 20% HP-β-CD solution. The pH of the formulations was/is around pH 4. All i.v. formulations were isotonic.

Data set [3] addresses S. aureus ATCC 29213 FabI (Staphylococcus aureus (strain MRSA252), UniProt Q6GI75). As to the kind of experiment: Staphylococcus aureus FabI enzyme inhibition assay. The data set is classed as biochemical. The following applies: pH 6.5, 30 minutes at room temperature.
For data set [4], the system named is Methicillin-sensitive Staphylococcus aureus strain ATCC 29213. Nature of the data set: In vivo efficacy, peritonitis model of S. aureus infection. Conditions: IV, 20% CD + 2H2T, IP infection, inoculum 8.7 log10, female Swiss albino mice, 3 days post-infection. The source says:
The concept of studying the in vivo effect of an antibacterial compound by treating intraperitoneally infected mice was introduced in 1911 for optochin against pneumococci (Morgenroth and Levy, 1911). The popularity of the model comes from the ease of its use with short-duration experiments, reproducible infections and simple end-points.
Methicillin-sensitive Staphylococcus aureus strain ATCC 29213 was used to infect female Swiss albino mice. A Brain Heart Infusion (BHI) broth bacterial culture was inoculated the day before infection, incubated at 37° C. overnight and diluted in fresh BHI broth to the desired concentration. I.p. injection of ˜5×10^8-5×10^9 colony forming units (CFU) was performed in either of the lateral lower quadrants of the abdomen. After inoculation, mice were kept in their cages under daily observation for development of signs of infection or death. For the treatment of mice, both the p.o. and i.v. routes were used and each mouse was treated individually by gavage or by i.v. injection. Both solutions (p.o. and i.v.) and suspensions (p.o.) were tested in this model. The parameter used for monitoring the course of infection and the effect of treatment was death or survival of the animals over 3 days post-infection. […]

For orientation: Cmax means the peak of the concentration-time curve. One may read the Tmax as the time from dosing to the highest level. Consider `O=C1CCc2cc(/C=C/C(=O)N3C[C@@H]4CC(c5ccccc5)=C[C@@H]4C3)cnc2N1` (single isomer, unassigned) [compound 14], for which the “STA (361.159) IC90” value in data set [1] came out at 0.19 µg/mL. Also, in the data set with Human HelaM cells, the “TOX HELAM (222.125) CC50” value is more than 9.683 µg/mL. For the same compound, in data set [2] (i.v. 2.5 mg/kg), the AUC0-inf was found to be 7464 ng·h/mL, the “Half life (t1/2)” value amounted to 2.7 h, the “Plasma clearance Cl” value was found to be 5.5 mL/min/kg and the Vdz is recorded as 1.3 L/kg. This compound yielded a C0 in data set [2] (i.v. 2.5 mg/kg, 20% HP-β-CD solution) of 2929 ng/mL. In data set [2] (p.o. 10 mg/kg vs i.v. 2.5 mg/kg), this compound displayed an Oral bioavailability of 72%. Besides, in data set [2] (p.o. 10 mg/kg), the AUC0-inf worked out at 21394 ng·h/mL, the Cmax worked out at 2950 ng/mL, the “Half life (t1/2)” value amounted to 3.2 h and the Tmax is 2.0 h. Further, in data set [3], the “FabI IC50” value came to 0.40 µg/mL. Besides, the “% Survival” value in data set [4] (QD 2.5 mpk) worked out at 75%. The “% Survival” value in data set [4] (QD 5 mpk) turned out to be 100%.
